From patent US8735414B2 (priority 2009, dated 2014)

What was measured:
[1] = test system: bicistronic HCV replicon (replicon RNA, GenBank Accession No. AJ242654); experiment: HCV Replicon Assay; format: cell-based; conditions: Hepatitis C virus, 72 h, read-out: Replicon IC50

SMILES: N#Cc1c(-c2ccc(S(=O)(=O)NC(CF)CF)cn2)n(C2CC2)c2cc(OC(F)F)ccc12 [compound 42, 6-[3-cyano-1-cyclopropyl-6-(difluoromethoxy)-1H-indol-2-yl]-N-(1,3-difluoropropan-2-yl)pyridine-3-sulfonamide]
- IC50 [1]: < 500 nM
- melting point: 219 to 220 °C

SMILES: Cc1cc2c(cc1F)c(C#N)c(-c1ccc(S(=O)(=O)N[C@@H](C)C(F)(F)F)cn1)n2-c1cncnc1 [compound 894, 6-[3-cyano-5-fluoro-6-methyl-1-(pyrimidin-5-yl)-1H-indol-2-yl]-N-[(2S)-1,1,1-trifluoropropan-2-yl]pyridine-3-sulfonamide]
- IC50 [1]: < 500 nM
- melting point: 198 to 202 °C

SMILES: C[C@H](NS(=O)(=O)c1ccc(-c2c(C#N)c3c(F)cc(OC(F)F)cc3n2C2CCC2)nc1)C(F)(F)F [compound 797, 6-[3-cyano-1-cyclobutyl-6-(difluoromethoxy)-4-fluoro-1H-indol-2-yl]-N-[(2S)-1,1,1-trifluoropropan-2-yl]pyridine-3-sulfonamide]
- IC50 [1]: < 500 nM
- melting point: 210 to 212 °C

SMILES: N#Cc1c(-c2ncc(S(=O)(=O)NC(CF)CF)cn2)n(C2CCCC2)c2cc(Cl)ccc12 [compound 157, 2-(6-chloro-3-cyano-1-cyclopentyl-1H-indol-2-yl)-N-(1,3-difluoropropan-2-yl)pyrimidine-5-sulfonamide]
- IC50 [1]: < 500 nM
- melting point: 233 to 238 °C

SMILES: C[C@H](NS(=O)(=O)c1ccc(-c2c(C(N)=O)c3cc(Cl)ccc3n2C2CCC2)nc1)C(F)(F)F [compound 996, 5-chloro-1-cyclobutyl-2-(5-{[(2S)-1,1,1-trifluoropropan-2-yl]sulfamoyl}pyridin-2-yl)-1H-indole-3-carboxamide]
- IC50 [1]: < 500 nM
- melting point: 244 to 245 °C

SMILES: C[C@H](NS(=O)(=O)c1ccc(-c2c(C(N)=O)c3cc(F)ccc3n2C2CCC2)nc1)C(F)(F)F [compound 997, 1-cyclobutyl-5-fluoro-2-(5-{[(2S)-1,1,1-trifluoropropan-2-yl]sulfamoyl}pyridin-2-yl)-1H-indole-3-carboxamide]
- IC50 [1]: < 500 nM
- melting point: 224 to 227 °C

SMILES: C[C@H](NS(=O)(=O)c1ccc(-c2c(C#N)c3ccc(CC(F)F)cc3n2C2CCCC2)nc1)C(F)(F)F [compound 595, 6-[3-cyano-1-cyclopentyl-6-(2,2-difluoroethyl)-1H-indol-2-yl]-N-[(2S)-1,1,1-trifluoropropan-2-yl]pyridine-3-sulfonamide]
- IC50 [1]: < 500 nM
- melting point: 181 to 189 °C

SMILES: Cc1ccc2c(C#N)c(-c3ncc(S(=O)(=O)NC(CF)CF)cn3)n(C3CCC3)c2c1F [compound 557, 2-(3-cyano-1-cyclobutyl-7-fluoro-6-methyl-1H-indol-2-yl)-N-(1,3-difluoropropan-2-yl)pyrimidine-5-sulfonamide]
- IC50 [1]: < 500 nM
- melting point: 191 to 198 °C

SMILES: CC(C)Oc1ccc2c(C#N)c(-c3ccc(NS(C)(=O)=O)nn3)n(C3CCC3)c2c1 [compound 275, N-{6-[3-cyano-1-cyclobutyl-6-(propan-2-yloxy)-1H-indol-2-yl]pyridazin-3-yl}methanesulfonamide]
- IC50 [1]: 2000 to 5000 nM
- melting point: 225 to 227 °C

SMILES: Cc1cc2c(C#N)c(-c3ccc(S(=O)(=O)N[C@H](C)C(F)(F)F)cn3)n(C3CCC3)c2cc1Cl [compound 510, 6-(6-chloro-3-cyano-1-cyclobutyl-5-methyl-1H-indol-2-yl)-N-[(2R)-1,1,1-trifluoropropan-2-yl]pyridine-3-sulfonamide]
- IC50 [1]: 500 to 2000 nM
- melting point: 200 to 200.5 °C

SMILES: C[C@H](NS(=O)(=O)c1cnc(-c2c(C#N)c3ccc(CC(F)F)cc3n2C2CCCC2)nc1)C(F)(F)F [compound 600, 2-[3-cyano-1-cyclopentyl-6-(2,2-difluoroethyl)-1H-indol-2-yl]-N-[(2S)-1,1,1-trifluoropropan-2-yl]pyrimidine-5-sulfonamide]
- IC50 [1]: < 500 nM
- melting point: 240 to 246 °C

SMILES: N#Cc1c(-c2ccc(S(=O)(=O)NC(CF)CF)cn2)n(C2CCCC2)c2ccc(OC(F)F)cc12 [compound 33, 6-[3-cyano-1-cyclopentyl-5-(difluoromethoxy)-1H-indol-2-yl]-N-(1,3-difluoropropan-2-yl)pyridine-3-sulfonamide]
- IC50 [1]: < 500 nM
- melting point: 172 to 175 °C

SMILES: CCS(=O)(=O)Nc1ccc(-c2c(C#N)c3ccc(OC)cc3n2C2CCC2)nn1 [compound 277, N-[6-(3-cyano-1-cyclobutyl-6-methoxy-1H-indol-2-yl)pyridazin-3-yl]ethanesulfonamide]
- IC50 [1]: < 500 nM
- melting point: 212 to 214 °C

SMILES: C[C@H](NS(=O)(=O)c1ccc(-c2c(C#N)c3cc(F)ccc3n2C2CCC2)nc1)C1CC1 [compound 142, 6-(3-cyano-1-cyclobutyl-5-fluoro-1H-indol-2-yl)-N-[(1S)-1-cyclopropylethyl]pyridine-3-sulfonamide]
- IC50 [1]: < 500 nM
- melting point: 128 to 130 °C

SMILES: Cc1cc2c(cc1F)c(C#N)c(-c1ccc(S(=O)(=O)N[C@@H](C)C(F)(F)F)cn1)n2-c1ccc(C(F)(F)F)cn1 [compound 740, 6-{3-cyano-5-fluoro-6-methyl-1-[5-(trifluoromethyl)pyridin-2-yl]-1H-indol-2-yl}-N-[(2S)-1,1,1-trifluoropropan-2-yl]pyridine-3-sulfonamide]
- IC50 [1]: < 500 nM
- melting point: 253 to 255 °C

SMILES: N#Cc1c(-c2ccc(S(=O)(=O)NC(CF)CF)cn2)n(C2CCC2)c2cc(Cl)c(F)cc12 [compound 50, 6-(6-chloro-3-cyano-1-cyclobutyl-5-fluoro-1H-indol-2-yl)-N-(1,3-difluoropropan-2-yl)pyridine-3-sulfonamide]
- IC50 [1]: < 500 nM
- melting point: 211 to 213 °C

SMILES: CC(C)n1c(-c2ccc(S(=O)(=O)NC3CCC3)cn2)c(C#N)c2ccc(OC(F)F)cc21 [compound 2, 6-[3-cyano-6-(difluoromethoxy)-1-(propan-2-yl)-1H-indol-2-yl]-N-cyclobutylpyridine-3-sulfonamide]
- IC50 [1]: < 500 nM
- melting point: 130 to 132 °C

SMILES: Cc1ccc2c(C#N)c(-c3ccc(S(=O)(=O)NC(C)(C)C(F)(F)F)cn3)n(C3CCCC3)c2c1F [compound 579, 6-(3-cyano-1-cyclopentyl-7-fluoro-6-methyl-1H-indol-2-yl)-N-(1,1,1-trifluoro-2-methylpropan-2-yl)pyridine-3-sulfonamide]
- IC50 [1]: < 500 nM
- melting point: 203 to 205 °C

SMILES: CC(C)c1ccc2c(C#N)c(-c3ccc(S(=O)(=O)NC(CF)CF)cn3)n(C3CCCC3)c2c1 [compound 457, 6-[3-cyano-1-cyclopentyl-6-(propan-2-yl)-1H-indol-2-yl]-N-(1,3-difluoropropan-2-yl)pyridine-3-sulfonamide]
- IC50 [1]: < 500 nM
- melting point: 163 to 172 °C

SMILES: COc1ccc2c(c1)c(C#N)c(-c1ccc(S(=O)(=O)NC(CF)CF)cn1)n2C1CCCC1 [compound 571, 6-(3-cyano-1-cyclopentyl-5-methoxy-1H-indol-2-yl)-N-(1,3-difluoropropan-2-yl)pyridine-3-sulfonamide]
- IC50 [1]: < 500 nM
- melting point: 167 to 169 °C

SMILES: CC(C)Oc1ccc2c(C#N)c(-c3ccc(NS(=O)(=O)C4CC4)cn3)n(CC3CC3)c2c1 [compound 280, N-{6-[3-cyano-1-(cyclopropylmethyl)-6-(propan-2-yloxy)-1H-indol-2-yl]pyridin-3-yl}cyclopropanesulfonamide]
- IC50 [1]: 500 to 2000 nM
- melting point: 150 to 155 °C
